Experiments:
Type in all cases: cell-based, human
[1] = tested on: peripheral blood mononuclear cells derived from a cancer patient; assay: CTL induction by peptide from autologous PBMC of cancer patient, IFN-γ production on recognition of target cells (Example 5); conditions: for Recognition of tumor cells by PBMC stimulated in vitro with peptide (IFN-γ production): SW620, CA9-22 and Panc-1 HLA-A2+ tumor cells, result in words; for IFN-γ production from peripheral blood mononuclear cells in recognition of target cells: PBMC stimulated with 10 μM peptide
From the text: Among the peptides that were able to enhance IFN-γ production from the OK-CTLp or OK-CTL clone in Example 4, those from P1 to P19 were examined for their ability to induce CTL from peripheral blood mononuclear cells derived from a cancer patient. The method for inducing CTL by a peptide was according to the well-known method (J. Exp. Med., 187:277-288, 1998; Cancer Res., 59:4056-4063, 1999.) Specifically, autologous peripheral blood mononuclear cells (PBMC) derived from a cancer patient, from whom OK-CTLp was obtained, were incubated together with the peptide (10 μM.) The cells were re-stimulated at day 10 and 14 after the start of culturing, using autologous PBMCs as an antigen presenting cell (APC) which were pulsed with 10 μM of the same peptide for 2 h and exposed to irradiation (30 gray.) At day 21 after the start of culturing, the cells were collected to test for surface phenotype. In addition, the cells were examined for the recognition of various target cells, using IFN-γ production measured by ELISA when they were cultured together with the target cells as an indicator. As a target cells, SW620 cell, CA9-22 cell, and Panc-1 cell, which are the HLA-A2^+ tumor cells, were used.

[2] = tested on: peripheral blood mononuclear cells derived from a cancer patient; assay: as above; conditions: PBMC stimulated with 10 μM peptide
OK-CTL clone = assay: IFN-γ production by OK-CTL clones cultured with COS-7 cells cotransfected with cDNA clone and HLA-A0207 cDNA; parameters: unit not given here
Method: Since CTL activated by recognizing the tumor antigen is a population of cells recognizing plural kinds of tumor antigens, the above-described OK-CTLp was subjected to cloning by limiting dilution culture (0.3, 0.5, 1, 2, and 4 cells/well) to obtain an OK-CTL clone (J. Immunol., 163:4994-5004, 1999. ) These clones are those having CTL activity selected by culturing them together with COS-7 cells into which 100 ng/well of any one of the above-described seven cDNA clones and 100 ng/well of HLA-A0207 cDNA were cotransfected, or with the tumor cells, in a cell ratio of 1:1, and measuring IFN-γ production. Specifically, three hundred CTL clones were obtained from the parent line OK-CTLp by a limiting dilution culture. Eighty CTL clones among them had HLA-A2-restricted tumor-specific CTL activity and expressed the phenotype of CD3^+ CD4^− CD8^+ and TCR αβ^+.

[3] = CTL clone 0.5-1-D6, cDNA with HLA-A0207 cDNA in COS-7
[4] = CTL clone 0.5-1-D7, cDNA with HLA-A0207 cDNA in COS-7
[5] = CTL clone 0.5-1-H2, cDNA with HLA-A0207 cDNA in COS-7
[6] = CTL clone 0.5-1-H12, cDNA with HLA-A0207 cDNA in COS-7
[7] = CTL clone 0.5-2-A4, cDNA with HLA-A0207 cDNA in COS-7
[8] = CTL clone 1-2-D1, cDNA with HLA-A0207 cDNA in COS-7
[9] = CTL clone 1-2-D7, cDNA with HLA-A0207 cDNA in COS-7
[10] = CTL clone 1-2-D12, cDNA with HLA-A0207 cDNA in COS-7
[11] = CTL clone 2-1-F4, cDNA with HLA-A0207 cDNA in COS-7
[12] = CTL clone 2-1-H12, cDNA with HLA-A0207 cDNA in COS-7
[13] = CTL clone 2-2-B4, cDNA with HLA-A0207 cDNA in COS-7
[14] = CTL clone 2-2-H3, cDNA 100 ng/well with HLA-A0207 cDNA in COS-7
[15] = CTL clone 4-1-H8, cDNA with HLA-A0207 cDNA in COS-7
[16] = CTL clone 4-2-A11, cDNA with HLA-A0207 cDNA in COS-7
[17] = CTL clone 4-2-B3, cDNA with HLA-A0207 cDNA in COS-7

Row | Molecule | IFN-γ production by CTL clone (OK-CTL clone; [3]) | IFN-γ production by CTL clone (OK-CTL clone; [4]) | IFN-γ production by CTL clone (OK-CTL clone; [5]) | IFN-γ production by CTL clone (OK-CTL clone; [6]) | IFN-γ production by CTL clone (OK-CTL clone; [7]) | IFN-γ production by CTL clone (OK-CTL clone; [8]) | IFN-γ production by CTL clone (OK-CTL clone; [9]) | IFN-γ production by CTL clone (OK-CTL clone; [10]) | IFN-γ production by CTL clone (OK-CTL clone; [11]) | IFN-γ production by CTL clone (OK-CTL clone; [12]) | IFN-γ production by CTL clone (OK-CTL clone; [13]) | IFN-γ production by CTL clone (OK-CTL clone; [14]) | IFN-γ production by CTL clone (OK-CTL clone; [15]) | IFN-γ production by CTL clone (OK-CTL clone; [16]) | IFN-γ production by CTL clone (OK-CTL clone; [17]) | other results
1 | ALVEFEDVL (Designed peptide having an ability to activate HLA-A2 restricted Cytotoxic T lymphocytes) [Peptide P6, Gene 2 (HNRPL) 140-148] |  |  |  |  |  |  |  |  |  |  |  |  |  |  |  | Recognition of tumor cells by PBMC stimulated in vitro with peptide (IFN-γ production) [1]: produced IFN-γ in a significant amount; IFN-γ production from peripheral blood mononuclear cells in recognition of target cells ([1]; target CA9-22 (HLA-A0207/24)): 863 pg/mL; IFN-γ production from peripheral blood mononuclear cells in recognition of target cells ([1]; target Panc-1 (HLA-A0201/11)): 527 pg/mL; IFN-γ production from peripheral blood mononuclear cells in recognition of target cells ([1]; target SW620 (HLA-A0201/24)): 344 pg/mL; IFN-γ production from peripheral blood mononuclear cells in recognition of target cells ([2]; target COLO320 (HLA-A24/24)): 40 pg/mL; IFN-γ production from peripheral blood mononuclear cells in recognition of target cells ([2]; target QG56 (HLA-A26/26)): 0 pg/mL; IFN-γ production from peripheral blood mononuclear cells in recognition of target cells ([2]; target RERF-LC-MS (HLA-A11/11)): 8 pg/mL
2 | ASLDSDPWV (Designed peptide having an ability to activate HLA-A2 restricted Cytotoxic T lymphocytes) [Peptide P10, Gene 3 (WHSC2) 103-111] |  |  |  |  |  |  |  |  |  |  |  |  |  |  |  | Recognition of tumor cells by PBMC stimulated in vitro with peptide (IFN-γ production) [1]: produced IFN-γ in a significant amount; IFN-γ production from peripheral blood mononuclear cells in recognition of target cells ([1]; target CA9-22 (HLA-A0207/24)): 130 pg/mL; IFN-γ production from peripheral blood mononuclear cells in recognition of target cells ([1]; target Panc-1 (HLA-A0201/11)): 163 pg/mL; IFN-γ production from peripheral blood mononuclear cells in recognition of target cells ([1]; target SW620 (HLA-A0201/24)): 108 pg/mL; IFN-γ production from peripheral blood mononuclear cells in recognition of target cells ([2]; target COLO320 (HLA-A24/24)): 0 pg/mL; IFN-γ production from peripheral blood mononuclear cells in recognition of target cells ([2]; target QG56 (HLA-A26/26)): 0 pg/mL; IFN-γ production from peripheral blood mononuclear cells in recognition of target cells ([2]; target RERF-LC-MS (HLA-A11/11)): 0 pg/mL
3 | Clone 5: cDNA clone from Panc-1, 2404 bp [AB044546], homology with ppMAPkkk | 0 | 0 | 81 | 0 | 0 | 0 | 0 | 0 | >1000 | 0 | 0 | 0 | 0 | 0 | 0 | 
4 | clone 1: cDNA clone from Panc-1, 1775 bp [AB044550], high homology with UBE2V | 19 | 27 | 0 | 0 | 0 | 21 | 0 | 0 | 0 | 134 | 0 | 110 | 0 | 0 | 0 | 
5 | clone 2: cDNA clone from Panc-1, 2097 bp [AB044547], high homology with HNRPL | 0 | 34 | 0 | 0 | 0 | 0 | 200 | >1000 | 0 | 0 | 0 | 0 | 133 | 0 | 0 | 
6 | clone 3: cDNA clone from Panc-1, 2243 bp [AB044549], high homology with WHSC2 | 0 | 0 | 0 | 0 | 0 | 22 | 0 | 0 | 0 | 0 | 0 | 0 | 0 | 100 | 0 | 
7 | clone 6: cDNA clone from Panc-1, 6707 bp [AB044545], homology with 2-5 OAS3 | 13 | 110 | 0 | 0 | 113 | 61 | 0 | 0 | 0 | 0 | >1000 | 0 | 0 | 0 | 0 | 
8 | clone 4: cDNA clone from Panc-1, 831 bp [AB044548], high homology with EIF4EBP1 (nucleic acid, listed as Homo sapiens, polyA_site (831)..(831)) DNA: GCGGGAGGGCAGCGAGAGGTTCGCGGGTGCAGCGCACAGGAGACCATGTCCGGGGGCAGCAGCTGCAGCCAGACCCCAAGCCGGGCCATCCCCGCCACTCGCCGGGTGGTGCTCGGCGACGGCGTGCAGCTCCCGCCCGGGGACTACAGCACGACCCCCGGCGGCACGCTCTTCAGCACCACCCCGGGAGGTACCAGGATCATCTATGACCGGAAATTCCTGATGGAGTGTCGGAACTCACCTGTGACCAAAACACCCCCAAGGGATCTGCCCACCATTCCGGGGGTCACCAGCCCTTCCAGTGATGAGCCCCCCATGGAAGCCAGCCAGAGCCACCTGCGCAATAGCCCAGAAGATAAGCGGGCGGGCGGTGAAGAGTCACAGTTTGAGATGGACATTTAAAGCACCAGCCATCGTGTGGAGCACTACCAAGGGGCCCCTCAGGGCCTTCCTGGGAGGAGTCCCACCAGCCAGGCCTTATGAAAGTGATCATACTGGGCAGGCGTTGGCGTGGGGTCGGACACCCCAGCCCTTTCTCCCTCACTCAGGGCACCTGCCCCCTCCTCTTCGTGAACACCAGCAGATACCTCCTTGTGCCTCCACTGATGCAGGAGCTGCCACCCCAAGGGGAGTGACCCCTGCCAGCACACCCTGCAGCCAAGGGCCAGGAAGTGGACAAGAACGAACCCTTCCTTCCGAATGATCAGCAGTTCCAGCCCCTCGCTGCTGGGGGCGCAACCACCCCTTCCTTAGGTTGATGTGCTTGGGAAAGCTCCCTCCCCCTCCTTCCCCAAGAGAGGAAATAAAAGCCACCTTCGCCCTAGGGCCAAG | 118 | 0 | 0 | >1000 | 0 | 44 | 0 | 0 | 0 | 0 | 0 | 0 | 0 | 0 | 95 | 

Source: patent publication US7524930B2, “Tumor antigen” (Green Peptide Co., Ltd, priority 2003, dated 2009)
